Laboratory results from ChEMBL document CHEMBL4680320, “Exploiting the antiproliferative potential of spiropyrazoline oxindoles in a human ovarian cancer cell line” (Bioorg Med Chem, 2021).
Activity calls are given as the source filed them. The calls are words filed in the database; no cut-off is given here.

Columns and labels:
Fibroblast = assay: Cytotoxicity against human fibroblasts cells assessed as cell viability incubated for 48 hrs by MTS assay; assay type: cell-based
A2780 [1] = assay: Antiproliferative activity against human A2780 cells assessed as cell viability incubated for 48 hrs by MTS assay; assay type: functional, cell-based; conditions: A2780, 48 h
MDA-MB-453 = assay: Antiproliferative activity against human MDA-MB 453 cells assessed as reduction in cell viability incubated for 48 hrs by MTS assay; assay type: functional, cell-based; conditions: MDA-MB-453, 48 h
A2780 [2] = assay: Induction of apoptosis in human A2780 cells assessed as PARP level at 8.5 uM after 48 hrs by Western blot analysis; assay type: functional, cell-based
A2780 [3] = assay: Induction of mitochondrial membrane potential loss in human A2780 cells at 8.5 uM after 48 hrs by JC-1 staining based flow cytometry; assay type: functional, cell-based
A2780 [4] = assay: Induction of apoptosis in human A2780 cells assessed as apoptotic cells at 8.5 uM measured after 48 hrs by Hoechst staining based fluorescence microscopic analysis relative to control; assay type: functional
A2780 [5] = assay: Induction of apoptosis in human A2780 cells assessed as late apoptotic cells at 8.5 uM measured after 48 hrs by Annexin-V/propidium iodide staining-based flow cytometric analysis (reference value: 6%); assay type: functional
A2780 [6] = assay: Induction of apoptosis in human A2780 cells assessed as increased BAX expression at 8.5 uM after 48 hrs by Western blot analysis; assay type: functional, cell-based
A2780 [7] = assay: Induction of apoptosis in human A2780 cells assessed as decreased […] expression at 8.5 uM after 48 hrs by Western blot analysis; assay type: functional, cell-based
A2780 [8] = assay: Induction of intracellular reactive oxygen species production in human A2780 cells at 8.5 uM measured after 48 hrs by DCFH-DA probe based fluorescence microscopic analysis; assay type: functional, cell-based
Cancer cell lines = assay: Induction of apoptosis in human A2780 cells assessed as DNA damage after 48 hrs by fluorescence microscopic analysis; assay type: functional, cell-based
DNA [9] = assay: Induction of DNA damage of Escherichia coli pUC18 plasmid DNA at 8.5 uM after 24 hrs by agarose gel electrophoresis method; assay type: nucleic-acid assay
Calf thymus DNA [10] = assay: Binding affinity to calf thymus DNA after 24 hrs by UV-vis spectroscopy; conditions: Bos taurus
A2780 [11] = assay: Induction of necrosis in human A2780 cells at 8.5 uM measured after 48 hrs by Annexin-V/propidium iodide staining-based flow cytometric analysis; assay type: functional, cell-based
A2780 [12] = assay: Induction of autophagy in human A2780 cells assessed as autophagosome accumulation at 8.5 uM after 48 hrs by Hoechst staining based fluorescence microscopic analysis relative to control; assay type: functional, cell-based
DNA [13] = assay: Induction of DNA damage in human A2780 cells assessed as DNA fragmentation at 8.5 uM after 48 hrs by agarose gel electrophoresis; assay type: cell-based
Calf thymus DNA [14] = assay: Binding affinity to calf thymus DNA at 100 uM by circular dichroism spectroscopy; conditions: Bos taurus
A2780 [15] = assay: Effect on cell cycle distribution in human A2780 cells at 8.5 uM measured after 4 to 24 hrs by flow cytometry; assay type: functional, cell-based; conditions: time 4-24 hrs

Structure (SMILES) | IC50 (Fibroblast) [µM] | IC50 (A2780 [1]) [µM] | IC50 (MDA-MB-453) [µM] | also measured
CC(C)(C)C1=NN(c2ccccc2)[C@]2(C(=O)Nc3ccc(Br)cc32)[C@H]1c1ccccc1 | 15.7 | 12.1 | 14.6 | –
CC(C)(C)C1=NN(c2ccc(Cl)cc2)[C@]2(C(=O)Nc3cc(Cl)c(F)cc32)[C@H]1c1cccc(Cl)c1F | 12.9 | 9.9 | 15 | –
CC(C)(C)C1=NN(c2ccccc2)[C@]2(C(=O)Nc3cc(Cl)c(F)cc32)[C@H]1c1cccc(Cl)c1 | 14.9 | 11.4 | 14.7 | –
CC(C)(C)C1=NN(c2ccccc2)[C@]2(C(=O)Nc3cc(Cl)c(F)cc32)[C@H]1c1cccc(Cl)c1F | 17.3 | 11.7 | 16.3 | –
COc1cccc2c1C(=O)c1c(O)c3c(c(O)c1C2=O)C[C@@](O)(C(=O)CO)C[C@@H]3O[C@H]1C[C@H](N)[C@H](O)[C@H](C)O1 [DOXORUBICIN] | – | 0.6 | – | –
O=C1Nc2ccc(Br)cc2[C@]12[C@@H](c1ccccc1)C(c1ccccc1)=NN2c1ccccc1 | 55.2 | 8.5 | 11.3 | Activity (A2780 [2]): Active; Activity (A2780 [3]): Active; Activity (A2780 [4]): 31%; Activity (A2780 [5]): 13%; Activity (A2780 [6]): Active; Activity (A2780 [7]): Active; Activity (A2780 [8]): inactive; Activity (Cancer cell lines): Active; Activity (DNA [9]): inactive; Kb (Calf thymus DNA [10]): 7.09 10^6/M; Activity (A2780 [11]): inactive; Activity (A2780 [12]): Active; Activity (DNA [13]): inactive; Activity (Calf thymus DNA [14]): Active; Activity (A2780 [15]): inactive
